The text below walks through data of patent US10611748B2, “Xanthone derivatives for the treatment of hepatitis B virus disease” (Hoffmann-La Roche Inc., priority 2017, dated 2020).

Usually IC50 stands for the point on the concentration scale where inhibition reaches its midpoint.

In test [1] the test system is extracellular HBeAg level (surrogate marker for cccDNA) in HepDES19 cells. The experiment in a line: HepDES19 primary screen assay. The class given is cell-based, HBV. The note with it: Hepatitis B virus, 120 h, 5 days compound incubation, HBeAg ELISA. The text has this: The assay was employed to primarily screen for novel cccDNA inhibitors. HepDES19 is an engineered cell line which contains a 1.1 unit length HBV genome, and pgRNA transcription from the transgene is controlled by Tetracycline (Tet). In the absence of Tet, pgRNA transcription will be induced, but HBV e antigen (HBeAg) could not be produced from this pgRNA due to the fact that the very short leader sequence before the HBeAg start codondisrupted the start codon. Only after cccDNA is formed, the missing leader sequence and start codon mutation would be restored from the 3′-terminal redundancy of pgRNA, and then HBeAg could be synthesized. Therefore, HBeAg could be used as a surrogate marker for cccDNA (Zhou, T. et al., Antiviral Res(2006), 72(2), 116-124; Guo, H. et al., J. Virol (2007), 81(22), 12472-12484).
HepDES19 cells were seeded at 2×10^6 cells per T150 flask and cultured with the culture medium (Dulbecco's Modified Eagle Medium: Nutrient Mixture F-12 (DMEM:F12, Gibco Cat. 11320-82), 10% Fetal Bovine Serum (FBS, Clontech Cat. 631101), 0.1 mM Non-Essential Amino Acids Solution (NEAA, Gibco Cat. 11140-050), 50 μg/mL Penicillin-Streptomycin (PS, Invitrogen Cat. 15140-163), 500 μg/mL Geneticin (G418, Invitrogen Cat. 10131-027) containing 3 μg/mL Tet (Sigma, Cat. 87128) for 5 days. Cells were then seeded at 4×10^6 cells per T150 in the same culture medium as described above in the absence of Tet for 8 days. Cells were then harvested and frozen at density of 2×10^6 cells per mL. For compound testing, the frozen cells were thawed and seeded into 96-well plates at a density of 6×10^4 cells per well. At 24 hrs after seeding, half log serial dilutions of compounds made with Dimethyl sulfoxide (DMSO, Sigma, Cat. D2650) were further diluted with the same culture medium as described above before they were added to the cells to reach desired final compound concentrations and 1% DMSO concentration. Plates were then incubated at 37° C. for another 5 days before measurement of HBeAg level and cell viability. Extracellular HBeAg level were measured with enzyme-linked immunosorbent assay (ELISA) kit (Shanghai Kehua Diagnostic Medical Products Co., Ltd). Cell viability was assessed using Cell Counting Kit-8 (Donjindo, Cat. CK04-20). IC50 values were derived from the dose-response curve using 4 parameter logistic curve fit method.
The compounds of the present invention were tested for their capacity to inhibit extracellular HBeAg level as described herein.

The subject of test [2] is extracellular HBsAg level in HBV-infected PHH. As to the kind of experiment: Cryopreserved primary human hepatocytes (PHH) assay, HBsAg. The class given is cell-based. The note with it: Hepatitis B virus, Hepatocyte, 216 h, read-out: HBsAg IC50. As to the method: Cryopreserved PHH (BioreclamationIVT, Lot YJM) was thawed at 37° C. and gently transferred into pre-warmed InVitroGRO HT medium (BioreclamationIVT, Cat. S03317). The mixture was centrifuged at 70 relative centrifugal force (RCF) for 3 minutes at RT, and the supernatant was discarded. Pre-warmed InVitroGRO CP medium (BioreclamationIVT, Cat # S03316) was added to the cell pellet to gently re-suspend cells. The cells were seeded at the density of 5.8×10^4 cells per well to collagen I coated 96-well plate (Gibco, Cat. A1142803) with the InVitroGRO CP medium. All plates were incubated at 37° C. with 5% CO2 and 85% humidity.
At 20 hours after plating, the medium was changed to PHH culture medium (Dulbecco's Modified Eagle Medium (DMEM)/F12 (1:1) (Gibco, Cat. 11320-033), 10% fetal bovine serum (Gibco Cat. 10099141), 100 U/mL penicillin, 100 μg/mL streptomycin (Gibco, Cat. 151401-122), 5 ng/mL human epidermal growth factor (Invitrogen Cat. PHG0311L), 20 ng/mL dexamethasone (Sigma, Cat. D4902) and 250 ng/mL human recombinant insulin (Gibco, Cat. 12585-014)). And the cells were incubated at 37° C. with 5% CO2 and 85% humidity for 4 hours. The medium was then changed to pre-warmed PHH culture medium containing 4% polyethylene glycol (PEG) MW8000 (Sigma, Cat. P1458-50ML) and 1% DMSO (Sigma, Cat. D2650). 5.8×10^6 genomic equivalents of HBV were added into the medium.
At 24 hours post-infection, the cells were gently washed with PBS and refreshed with PHH culture medium supplemented with 1% DMSO, and 0.25 mg/mL Matrix gel (Corning, Cat. 356237) at 200 μL per well. All plates were immediately placed in at 37° C. CO2 incubator.
24 hours later, serial dilutions of compounds made with DMSO were further diluted with the same culture medium (PHH culture medium supplemented with 1% DMSO and 0.25 mg/mL Matrix gel as described above) before they were added to the cells to reach desired final compound concentrations and 1% DMSO concentration. The medium containing the compounds were refreshed every three days.
At 9 days post-compound treatment, extracellular HBsAg level were measured with Chemiluminescence Immuno Assay (CLIA) kit (Autobio, HBsAg Quantitative CLIA). Extracellular HBV DNA was extracted by MagNA Pure 96 system (Roche) and then determined by quantitative PCR with the following primers and probe: HBV-Forward Primer (SEQ ID NO:2): […] (5′ to 3′); HBV-Reverse Primer (SEQ ID NO:3): […](5′ to 3′); HBV-Probe: 5′+tetramethylrhodamine+SEQ ID NO:4+black hole quencher 2-3′, wherein SEQ ID NO:4 is […].
HBsAg IC50 and HBV DNA IC50 values were derived from the dose-response curve using 4 parameter logistic curve fit method.

Regarding `O=C(O)C1CCN(c2cc3oc4c(Cl)cccc4c(=O)c3cc2F)C1` (stereo not shown) [Example 42, 1-(5-chloro-2-fluoro-9-oxo-xanthen-3-yl)pyrrolidine-3-carboxylic Acid], the 50% inhibitory concentration (IC50) was determined as 1170 nM in test [1] and 7740 nM in test [2].

For `Cc1cc2c(=O)c3cccc(Cl)c3oc2cc1N1CCC(C(=O)O)C1` (stereo not shown) [Example 39, 1-(5-chloro-2-methyl-9-oxo-xanthen-3-yl)pyrrolidine-3-carboxylic Acid], the results for the half-maximal inhibitory concentration (IC50) in test [1] and in test [2] were 1080 nM and 3180 nM, respectively.

For `O=C(O)C1CCN(c2ccc3c(=O)c4c(O)ccc(Cl)c4oc3c2)C1` (stereo not shown) [Example 53, 1-(5-chloro-8-hydroxy-9-oxo-xanthen-3-yl)pyrrolidine-3-carboxylic Acid], the figures for the IC50 in test [1] and in test [2] were 3430 nM and 8120 nM, respectively.

As for `Cc1ccc(Cl)c2oc3cc(N4CCC(C(=O)O)C4)ccc3c(=O)c12` (stereo not shown) [Example 40, 1-(5-chloro-8-methyl-9-oxo-xanthen-3-yl)pyrrolidine-3-carboxylic Acid], the values for the IC50 in test [1] and in test [2] were 1310 nM and 1690 nM, respectively.

Turning to `O=C(O)C1CCN(c2ccc3c(=O)c4c(F)ccc(Cl)c4oc3c2)C1` (stereo not shown) [Example 66, 1-(5-chloro-8-fluoro-9-oxo-xanthen-3-yl)pyrrolidine-3-carboxylic Acid], the IC50 in test [1] stood at 1910 nM; in test [2], 8480 nM.

For `COc1cc(O[C@@H]2O[C@H](CO)[C@@H](O)[C@H](O)[C@H]2O)c2c(=O)c3c(O)ccc(O)c3oc2c1` [Swertianolin, 5,8-dihydroxy-3-methoxy-1-[(2S,3R,4S,5S,6R)-3,4,5-trihydroxy-6-(hydroxymethyl)tetrahydropyran-2-yl]oxy-xanthen-9-one, reference compound], the IC50 in test [1] and in test [2] was more than 100000 nM throughout.

In test [1], `O=C(O)[C@@H]1CN(c2ccc3c(=O)c4cccc(Cl)c4oc3c2)C[C@H]1c1ccc(Cl)cc1` [Example 20, (3S,4R)-1-(5-chloro-9-oxo-xanthen-3-yl)-4-(4-chlorophenyl)pyrrolidine-3-carboxylic Acid] had an IC50 of 46600 nM.

As to `O=c1c2cc(F)c(N3CCCC3)cc2oc2c(F)cccc12` [Example 28, 2,5-difluoro-3-pyrrolidin-1-yl-xanthen-9-one], the 50% inhibitory concentration (IC50) in test [1] turned out to be 1860 nM.

In test [1], `Clc1cccc2c1Oc1cc(N3CCCC3)ccc1C2` [Example 55, 1-(5-chloro-9H-xanthen-3-yl)pyrrolidine] showed an IC50 of 1110 nM.

In test [1], `O=c1c2ccc(N3CCCCCC3)cc2oc2c(F)cccc12` [Example 13, 3-(azepan-1-yl)-5-fluoro-xanthen-9-one] returned an IC50 of 5490 nM.

In test [1], `Clc1cccc2c1Oc1cc(N3CCCC3)ccc1C2C1COC1` (stereo not shown) [Example 57, 1-[5-chloro-9-(oxetan-3-yl)-9H-xanthen-3-yl]pyrrolidine] displayed an IC50 of 7330 nM.

Consider `O=C(O)C1CCN(c2ccc3c(=O)c4c(C(F)(F)F)ccc(Cl)c4oc3c2)C1` (stereo not shown) [Example 67, 1-[5-chloro-9-oxo-8-(trifluoromethyl)xanthen-3-yl]pyrrolidine-3-carboxylic Acid], for which the IC50 in test [1] came out at 390 nM; in test [2] it was 1290 nM.

`O=c1c2ccc(N3CCCC3)cc2oc2c(F)ccc(Cl)c12` [Example 22, 1-chloro-4-fluoro-6-pyrrolidin-1-ylxanthen-9-one] displayed an IC50 in test [1] of 740 nM.

The compound `O=c1c2ccc(N3CCC4(CNC4)C3)cc2oc2c(F)cccc12` [Example 47, 3-(2,6-diazaspiro[3.4]octan-6-yl)-5-fluoro-xanthen-9-one] came in with a concentration for half-maximal inhibition (IC50) in test [1] of 4770 nM.

Regarding `O=C(O)[C@@H]1CCN(c2ccc3c(=O)c4c(Cl)ccc(Cl)c4oc3c2)C1` [Example 69, (3R)-1-(5,8-dichloro-9-oxo-xanthen-3-yl)pyrrolidine-3-carboxylic Acid], the midpoint of inhibition in test [1], the IC50, lay at 960 nM.

In test [1], `O=C(O)[C@H]1CN(c2ccc3c(=O)c4cccc(Cl)c4oc3c2)C[C@@H]1c1cccnc1` [Example 18, (3R,4S)-1-(5-chloro-9-oxo-xanthen-3-yl)-4-(3-pyridyl)pyrrolidine-3-carboxylic Acid] came in with an IC50 of 16600 nM.

Compound `O=c1c2ccc(N3CCC4(CCNC4)C3)cc2oc2c(F)cccc12` (stereo not shown) [Example 48, 3-(2,7-diazaspiro[4.4]nonan-2-yl)-5-fluoro-xanthen-9-one] came in with a half-maximal inhibitory concentration (IC50) in test [1] of 5480 nM.

In test [1], `O=c1c2ccc(N3CC[C@@H](O)C3)cc2oc2c(F)cccc12` [Example 32, 5-fluoro-3-[(3R)-3-hydroxypyrrolidin-1-yl]xanthen-9-one] returned an IC50 of 2720 nM.

In test [1], `CC1c2ccc(N3CCC(C(=O)O)C3)cc2Oc2c(Cl)cccc21` (stereo not shown) [Example 75, 1-(5-chloro-9-methyl-9H-xanthen-3-yl)pyrrolidine-3-carboxylic Acid] displayed an IC50 of 10100 nM.

In the case of `COC1(C(F)(F)F)c2ccc(N3CCCC3)cc2Oc2c(Cl)cccc21` (stereo not shown) [Example 60, 1-[5-chloro-9-methoxy-9-(trifluoromethyl)xanthen-3-yl]pyrrolidine], the IC50 in test [1] came to 22200 nM.

In turn, `O=c1c2ccc(N3CCOCC3)cc2oc2c(F)cccc12` [Example 29, 5-fluoro-3-morpholino-xanthen-9-one] displayed a half-maximal inhibitory concentration (IC50) in test [1] of 2130 nM.

With `CC(=O)OC(c1cccc(F)c1Cl)C1c2ccc(N3CCCC3)cc2Oc2c(Cl)cccc21` (stereo not shown) [Example 58, [(2-chloro-3-fluoro-phenyl)-(5-chloro-3-pyrrolidin-1-yl-9H-xanthen-9-yl)methyl]acetate], the concentration for half-maximal inhibition (IC50) in test [1] was 11700 nM.

In turn, `O=c1c2ccc(N3CCCC3)nc2oc2c(Cl)cccc12` [Example 64, 9-chloro-2-pyrrolidin-1-yl-chromeno[2,3-b]pyridin-5-one] had a half-maximal inhibitory concentration (IC50) in test [1] of 35000 nM.

Regarding `O=c1c2ccc(N3CC[C@H](O)C3)cc2oc2c(F)cccc12` [Example 31, 5-fluoro-3-[(3S)-3-hydroxypyrrolidin-1-yl]xanthen-9-one], inhibition in test [1] was half-maximal at 2710 nM (IC50).

In test [1], `O=c1c2ccc(N3CCC(O)C3)cc2oc2c(F)cccc12` (stereo not shown) [Example 24, 5-fluoro-3-(3-hydroxypyrrolidin-1-yl)xanthen-9-one] had a half-maximal inhibitory concentration (IC50) of 1050 nM.

Turning to `O=c1c2cc(Cl)c(N3CCCC3)cc2oc2c(F)cccc12` [Example 68, 2-chloro-5-fluoro-3-pyrrolidin-1-yl-xanthen-9-one], the IC50 in test [1] stood at 1180 nM.

Consider `O=c1c2ccc(N3CCCC(O)C3)cc2oc2c(Cl)cccc12` (stereo not shown) [Example 12, 5-chloro-3-(3-hydroxy-1-piperidyl)xanthen-9-one], for which, in test [1], the half-maximal inhibitory concentration (IC50) was 2880 nM.
